Active and inactive are the calls of the source.
Columns and labels:
[1] = molecular target: Voltage-gated inwardly rectifying potassium channel KCNH2 (Homo sapiens, UniProt Q12809); test: concentration-dependent hERG rescue from blockers – cell-based, thallium flux, dose response (AID 2121); type: ADME
cells [2] = test: cells
Major prion protein = Major prion protein (Homo sapiens, UniProt P04156); type: functional, cell-based
[3] = molecular target: Eukaryotic translation initiation factor 4E (Mus musculus, UniProt P63073); test: blockers of eIF4G binding by eIF4E – biochemical, TR-FRET, dose response (AID 855); type: functional;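 also: potency for disrupting eIF4E binding to eIF4GI seen as loss of FRET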
[4] = viability loss in THP-1 monocytes – THP-1 cells, cytotoxicity control for Vif-APOBEC3G degradation inhibitor project, dose response (AID 1117359); type: functional; conditions: THP-1
HEK293 = test: EBV LMP1 TES2 canonical NF-kB signalling blockers – cell-based, HEK293, luciferase, cherry-pick, dose response (AID 588343); type: functional; conditions: Homo sapiens
[5] = blockade of melanocortin 4 receptor signaling – cell-based, plate reader, cherry pick, counter-screen for LGR2 antagonist project, dose response (AID 743444); type: functional;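 also: transfected HEK 293 cells stimulated with alpha-MSH peptide; potency of inhibitors of the alpha-MSH evoked signal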
[6] = blockers of bursicon-stimulated LGR2 cAMP reporter – cell-based, HEK293, CRE-luciferase reporter, cherry pick, set 2, dose response (AID 743343); type: functional;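 also: transfected cells were stimulated with diluted bursicon conditioned medium after compound addition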
[7] = molecular target: T1, Acyl-homoserine lactone acylase PvdQ (Pseudomonas aeruginosa (strain LESB58), UniProt Q9I194); test: PvdQ acylase enzyme activity blockers – biochemical, fluorescence, plate reader and imaging, cherry-picks, dose response (AID 493231)
T1 sequence (Q9I194 whole entry): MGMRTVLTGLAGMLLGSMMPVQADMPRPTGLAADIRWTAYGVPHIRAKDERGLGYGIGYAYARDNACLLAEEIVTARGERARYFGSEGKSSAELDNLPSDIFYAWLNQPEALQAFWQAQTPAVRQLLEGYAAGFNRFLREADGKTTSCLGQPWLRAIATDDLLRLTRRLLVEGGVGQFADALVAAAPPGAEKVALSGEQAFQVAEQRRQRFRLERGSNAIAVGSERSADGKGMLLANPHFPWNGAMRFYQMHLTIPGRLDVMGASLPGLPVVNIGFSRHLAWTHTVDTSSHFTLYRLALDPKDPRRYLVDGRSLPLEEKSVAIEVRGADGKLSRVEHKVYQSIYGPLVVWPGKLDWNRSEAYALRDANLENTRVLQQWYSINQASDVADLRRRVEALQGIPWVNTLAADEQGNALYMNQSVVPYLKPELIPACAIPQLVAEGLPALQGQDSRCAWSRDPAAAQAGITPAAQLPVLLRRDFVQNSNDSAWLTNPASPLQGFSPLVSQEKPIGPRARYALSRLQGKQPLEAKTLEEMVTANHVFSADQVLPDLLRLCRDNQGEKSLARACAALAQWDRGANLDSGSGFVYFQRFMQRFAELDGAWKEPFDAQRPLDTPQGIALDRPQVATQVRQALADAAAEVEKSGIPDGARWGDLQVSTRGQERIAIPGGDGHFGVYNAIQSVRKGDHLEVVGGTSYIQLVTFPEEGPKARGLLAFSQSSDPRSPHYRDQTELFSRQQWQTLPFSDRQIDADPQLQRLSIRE

[8] = molecular target: Luciferin 4-monooxygenase (Photinus pyralis, UniProt P08659); test: Counter Screen for Luciferase-based Assay Positives. [Related pubchem assays: 620, 618, 411 ]
HT-1080 = test: HT1080 cell viability loss – fluorescence readout (AID 620); type: functional, cell-based; conditions: Homo sapiens
Kallikrein-7 = Kallikrein-7 (Homo sapiens, UniProt P49862); test: Fluorescence Intensity-based biochemical primary high throughput dose response assay to identify activators of kallikrein-7 (K7) zymogen.
Cytochrome P450 3A4 = Cytochrome P450 3A4 (Homo sapiens, UniProt P08684);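 also: CYP3A4 tested as one member of a cytochrome P450 panel screen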
[9] = molecular target: G-protein coupled receptor 55 (Homo sapiens, UniProt Q9Y2T6); test: selective activators of receptor GPR55 – imaging, U2OS cells, beta-arrestin-GFP redistribution, primary screen (AID 1961); type: functional
[10] = molecular target: FAD-linked sulfhydryl oxidase ALR (Homo sapiens, UniProt P55789); test: ALR-catalysed DTT oxidation blockers – biochemical, H2O2 detection, luminescence, cherry-pick, dose response (AID 493248)
[11] = THP-1 cell cytotoxicity, dose response, cytotoxicity control for non-replicating M. tuberculosis project (AID 489025); type: functional
cells [12] = type: functional
[13] = HepG2 cell cytotoxicity, dose response, cytotoxicity control for non-replicating M. tuberculosis project (AID 489018); type: functional; conditions: Mycobacterium tuberculosis
[14] = loss of viability in HepG2 cells – cell-based, CellTiter-Glo, cherry-picked, cytotoxicity control for Shn3 inhibitor project, dose response (AID 624134); type: functional
[15] = non-specific 3'UTR reporter inhibition in Clone20-Shn3RL – cell-based, Renilla luciferase, cherry-picked, counter-screen for Shn3 inhibitor project, dose response (AID 624133); type: functional
[16] = viability loss in CEM21 cells – cell-based, CellTiter-Glo luminescence, cherry-picked, cytotoxicity control for viral fusion inhibitor project, dose response (AID 652042); type: functional;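 also: potency for signal decrease meaning cytotoxicity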
[17] = HIV-1 AD8 envelope cell-cell fusion blockers – cherry-pick, dose response (AID 652062); type: functional, cell-based;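 also: luciferase signal from cell-cell fusion driven by HIV-1 clade B AD8 Env; potency is for inhibitors of fusion seen as a drop in luminescence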
[18] = blockers of HIV-1 envelope-mediated cell-cell fusion – cherry-pick, dose response (AID 652057); type: functional, cell-based
INS1 = test: INS-1E survival protection against cytokine death – cell-based, luminescence, retest, dose response (AID 449756); type: functional; conditions: Rattus norvegicus;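 also: cell death triggered by IL-1 beta plus TNF-alpha plus IFN-gamma mixture; protective hits raise ATP signal compared with cytokine alone wells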
[19] = off-target signal loss in HeLa-CEM21 co-culture – HeLa F-luc CTL cells, cherry-picked, counter-screen for HIV-1 Env fusion inhibitor project, dose response (AID 652040); type: functional, cell-based;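 also: potency for signal decrease marking cytotoxic or nonspecific inhibition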
[20] = blockers of HIV-1 ZM109 envelope-driven cell-cell fusion – HeLa effector, CEM target cells, luciferase, cherry-pick, dose response (AID 652058); type: functional, cell-based;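 also: luciferase signal from HIV-1 Env mediated cell-cell fusion of effector and target cells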
[21] = reduction of Shn3 3'UTR-driven luciferase in osteoblasts – cell-based, Clone20 osteoblasts, firefly luciferase, cherry-picked, dose response (AID 624132); type: functional;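 also: firefly luciferase luminescence from reporter carrying the Shn3 3'UTR in osteoblasts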
[22] = system: Streptococcus sp. 'group A'; test: Streptococcus pyogenes SK(-)GAS viability under kanamycin – luminescence, BacTiterGlo, confirmation, counter-screen for streptokinase expression inhibitor project, dose response (AID 1900); type: functional, organism-based
[23] = microbe, parasite or virus in culture; type: functional; conditions: Mycobacterium tuberculosis
Streptococcus = test: GAS UMAA2166 growth inhibition – luminescence, BacTiterGlo, counter-screen for streptokinase expression inhibitor project, dose response (AID 1915); type: functional, organism-based;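 also: potency for reduction of bacterial viability or growth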
[24] = toxicity toward HepG2 liver cells – cell-based, plate reader, cherry-pick, antagonist series, cytotoxicity control, dose response (AID 743416); type: functional
Paired box protein Pax-8 = Paired box protein Pax-8 (Homo sapiens, UniProt Q06710); test: PAX8 transcriptional activity inhibition in RMG-I – RMG-I cells, luciferase, cherry-pick, dose response (AID 687027); type: functional, cell-based;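 also: luciferase reporter driven by Pax8 target thyroperoxidase promoter measured by SteadyGlo luminescence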
[25] = OVCAR8 cell viability loss – plate reader, dry powder samples, PAX8 project, dose response (AID 743197); type: functional, cell-based; conditions: OVCAR-8
[26] = OVCAR-3 cell viability loss – plate reader, dry powder samples, PAX8 inhibitor project, dose response (AID 743044); type: functional, cell-based
[27] = growth inhibition of yeast DHODH-expressing 3D7 parasites – SYBR Green, dry powder samples, dose response (AID 1159570); type: functional, cell-based;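 also: parasite growth measured after 72 hours of compound exposure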
[28] = P. falciparum Dd2 growth inhibitors, dose response, SYBR Green, cherry-picked samples (AID 1159567); type: functional, cell-based
[29] = Dd2 malaria parasite growth inhibition potency – SYBR Green, dry powder samples, dose response (AID 1159566); type: functional, cell-based;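 also: potency for growth inhibition with lower SYBR green DNA signal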
[30] = growth inhibition of PfATP4-mutant resistant parasites – NITD609-resistant line, SYBR Green, dry powder, dose response (AID 1159571); type: functional, cell-based;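 also: parasites synchronized at ring stage by sorbitol before testing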

O=C(NC(=S)Nc1nc(-c2ccc(Br)cc2)cs1)c1ccco1
EC50 [1]: 7.39 µM (active)

Cc1nc(SC2CCOC2=O)c2c(C)c(C)sc2n1 (stereo not drawn)
IC50 (cells [2]): > 138 µM (inactive) | IC50 (Major prion protein): 1.93 µM (active)

CC(=O)Nc1cccc(NC(=S)Nc2ccc(F)c(Cl)c2)c1
IC50 [3]: 50 µM (inactive)

CC(C)CCNC(=O)Cn1c2c(c(-c3ccccc3Cl)cc1=O)CCC2
CC50 [4]: > 40 µM (active)

COc1ccc(OCC(=O)Nc2nccs2)cc1
AC50 (HEK293): 4.63 µM (active) | AC50 [5]: 5.99 µM (active) | AC50 [6]: 5.35 µM (active)

O=C(NC1CCCCCCC1)c1cccc(Cl)c1
AC50 [7]: 5.02 µM (active)

OCCCNc1[nH]cnc2c3ccccc3nc1-2
CC50 [4]: > 40 µM (active)

Cc1cc(C(=O)CSc2nnc(-c3cccs3)o2)c(C)n1-c1ccccc1
AC50 (HEK293): 5.59 µM (active) | EC50 [8]: > 100 µM (not active) | EC50 (HT-1080): 22.6 µM (active)

Cc1ccc(-c2nc(-c3ccccc3)no2)cc1
EC50 [8]: 1.67 µM (active) | EC50 (HT-1080): > 50 µM (not active)

O=C(NC(=S)Nc1ccccc1)c1cc(-c2ccccc2)nc2ccccc12
EC50 [1]: 0.38 µM (active)

COc1ccc2cc(C(=O)C3CCCN(C(=O)c4cccnc4)C3)ccc2c1 (stereo not drawn)
EC50 (Kallikrein-7): 23.7 µM (inactive)

CCCOC(=O)Oc1ccc2c(=O)c(Oc3cc(C)cc(C)c3)coc2c1
EC50 (Kallikrein-7): 3.19 µM (active)

N#CC1=C(N)OC2=C(CC/C2=C\c2ccccc2)C1c1ccccc1 (stereo not drawn)
AC50 (Cytochrome P450 3A4): 39.8 µM (inconclusive) | EC50 [9]: > 32 µM (inactive)

COc1cc(NC(=O)c2ccco2)c(OC)cc1NC(=O)CCC(=O)Nc1cc(C)ccc1C
EC50 (Kallikrein-7): 26.8 µM (inactive)

O=C(NC1CCSC1)c1cccc(Cl)c1 (stereo not drawn)
AC50 [7]: 4.11 µM (active)

Cc1nc2cc(-c3nc4cc(N)ccc4o3)ccc2[nH]1
EC50 [8]: > 100 µM (not active) | AC50 [10]: 1.72 µM (active) | EC50 (HT-1080): > 50 µM (not active)

C=CCn1c(C)cc(C2=NN=C(NCc3ccccc3)SC2)c1C
CC50 [11]: 13.8 µM (active) | IC50 (cells [12]): 10.8 µM (active) | CC50 [13]: > 20 µM (active)

CC(C)(C)n1ncc2c(=O)n(Cc3cccc(Cn4cnc5c(cnn5C(C)(C)C)c4=O)c3F)cnc21
AC50 [14]: 19.4 µM (active) | AC50 [15]: 0.84 µM (active) | AC50 [16]: 35.2 µM (active) | AC50 [17]: 6.31 µM (active) | AC50 [18]: 17.9 µM (active) | AC50 (INS1): 3.27 µM (active) | AC50 [19]: 35.4 µM (active) | AC50 [20]: 1.74 µM (active) | AC50 [21]: 1.09 µM (active)

Cc1cccc(/C=C2/SC(N/N=C3\CC4CCC3(C)C4(C)C)=NC2=O)c1 (stereo not drawn)
EC50 [22]: 1.83 µM (active) | CC50 [23]: > 40 µM (active) | EC50 (Streptococcus): 1.3 µM (active) | EC50 [1]: 0.12 µM (active)

COc1ccc2c(c1)CCC1(C)CC(=O)C(Br)=C21 (stereo not drawn)
IC50 (cells [2]): > 138 µM (inactive) | IC50 (Major prion protein): 3.21 µM (active)

Cc1ccc(S(=O)(=O)N2[C@@H](CO)CO[C@H]2CC(=O)OCc2ccccc2)cc1
AC50 [24]: > 52 µM (inactive)

C[C@@H]1CN([C@H](C)CO)C(=O)c2cc(NC(=O)c3ccccc3)ccc2O[C@@H](C)CCCCO[C@@H]1CN(C)Cc1ccc(C(F)(F)F)cc1
AC50 (Paired box protein Pax-8): 8.24 µM (active) | AC50 [25]: > 70 µM (inactive) | AC50 [26]: 50.2 µM (active)

CO[C@H](CN(C)S(=O)(=O)c1ccc(Cl)cc1)[C@@H](C)CN([C@@H](C)CO)S(=O)(=O)c1cccc(Cl)c1
AC50 [16]: 39.7 µM (active) | AC50 [17]: 25.1 µM (active) | AC50 [18]: 2.93 µM (active) | AC50 [20]: 5.98 µM (active)

COC(=O)[C@H](CC1(c2cn(S(=O)(=O)CC[Si](C)(C)C)c3ccccc23)C(=O)Nc2ccccc21)NC(=O)OC(C)(C)C (stereo partly drawn)
IC50 (cells [2]): > 138 µM (inactive) | IC50 (Major prion protein): 11.7 µM (inactive)

CO/N=C/c1ccc(Sc2ccccc2)c([N+](=O)[O-])c1
AC50 [7]: 97.2 µM (active)

COc1ccc2c3c(n(C)c2c1)[C@@H](CO)N(C(=O)C1CCCC1)CC31CN(C(=O)Nc2cccc(F)c2)C1
AC50 [27]: 0.818 µM (active) | AC50 [28]: 1.32 µM (active) | AC50 [29]: 1.88 µM (active) | AC50 [30]: 1.24 µM (active)

From ChEMBL document CHEMBL1201862, “PubChem BioAssay data set” (2004)
